Assay results as given in US6864256B2, “Methods for the control of insect pests” (Tria Specialty Products, LLC, priority 2002, dated 2005).
Where “and” joins values, the source holds several entries; their conditions need not be identical. Identical values can stand only once. Like-named read-outs stand apart in the source and are kept apart here. Marks after values point to notes of the source that are not given here.

Key:
dung-breeding flies = conditions: cattle, cited from earlier work
[1] = system: Musca domestica (Hilmer Strain) eggs; assay: House fly bioassay: larval hatch from 50 eggs; format: in vivo; conditions: for Larval Hatch/50 Eggs, Rep 1-4: scored after 2 days
Experimental: (§1) Cyromazine (2-cycloproplyamino-4,6-diamino-s-triazine) was obtained as a purified chemical composition at greater than 98% cyromazine (technical cyromazine). 600 mg of cyromazine was orally administered to each horse daily by top-dressing horse feed, for a continuous daily administration during fly season. In this example, horses residing in North Carolina, U.S. were treated during the local fly season, lasting approximately March through October of the calendar year.
(§2) In one study, cyromazine administration was stopped, and 5 manure samples were obtained from the same horse at 24, 48, 72, 96 and 120 hours post-dosing to monitor the duration of cyromazine at an insecticidal amount in the feces. In another study, single manure samples were collected from each individual horse (n=4) <24 hours after dosing with cyromazine, i.e., before another daily dose was given. Untreated control horse manure was collected from a nearby horse ranch. Samples were shipped and kept in the refrigerator until the house fly bioassay was set-up.
Approximately fifty (50) Musca domestica (Hilmer Strain) eggs <24 hours old were counted and placed on filter paper discs in each of four replicates (rep) per cyromazine treatment group or control. Each replicate was covered with a paper towel and placed in the environmental chamber at 80° F. (27° C.), 80% relative humidity and a 14:10 (light:dark) photoperiod. The eggs were scored for larval hatch after two days and a layer of wood shavings added as a moisture barrier and a dry substrate for pupation.
(§3) The percent larval hatch, adult fly emergence and corrected percent effect were calculated and recorded. The percentage of eggs hatching is calculated as the mean number of eggs hatched after 2 days per test divided by 50 (the total eggs input), and multiplied by 100. The percentage of adult fly emergence from larvae hatched (% larvae emerging as flies) is calculated as the mean number of adult flies emerging after 3 weeks per test divided by the mean number of larvae hatching on test day 2, and multiplied by 100. The percentage of larvae not developing is calculated as the mean number of larvae not developing per test divided by the mean number of larvae hatching on test day 2, and multiplied by 100. Thus, the data in Table 2 refers back to the data in Table 1, and the data in Table 4 refers back to the data in Table 3.

[2] = system: Musca domestica (Hilmer Strain) larvae; assay: House fly bioassay: adult fly emergence from larvae exposed to feces of cyromazine-treated horses; format: in vivo; conditions: for Adult Fly Emergence from Larvae Hatched, Rep 1-4: 600 mg/day oral, after 3 weeks
Experimental: as §1, §2
The replicates containing hatched larvae were then returned to the environmental chamber in the presence of the test feces samples to determine the insecticidal effect of the cyromazine in the feces. Adult house fly emergence from larvae was determined after 3 weeks.
as §3

[3] = Tolerability of daily oral cyromazine in horses; format: in vivo, horse; conditions: 600 mg daily oral by top-dressing feed
Experimental: as §1, §2

immature stages of flies = conditions: dairy calves, outdoor hutches, dose per body weight; cited from earlier work
house fly = conditions: feed-through to fattening porkers, traditional pens with straw bedding; cited from earlier work
house flies = conditions: added to the feed of mink; cited from earlier work
[4] = in vivo; cited from earlier work
[5] = horse Barney, <24 hours post-dosing group
[6] = horse Fancy, <24 hours post-dosing group
[7] = horse Phalete, <24 hours post-dosing group
[8] = horse Precious, <24 hours post-dosing group
[9] = same horse, 600 mg/day oral, 24 hours post-dosing group
[10] = same horse, 600 mg/day oral, 48 hours post-dosing group
[11] = same horse, 600 mg/day oral, 72 hours post-dosing group
[12] = same horse, 600 mg/day oral, 96 hours post-dosing group
[13] = same horse, 600 mg/day oral, 120 hours post-dosing group
[14] = 120 hour sample (4 reps), first study
[15] = feces of horse Barney, <24 hours post-dosing
[16] = feces of horse Fancy, <24 hours post-dosing
[17] = feces of horse Phalete, <24 hours post-dosing
[18] = feces of horse Precious, <24 hours post-dosing
[19] = horse feces 24 hours post-dosing
[20] = horse feces 48 hours post-dosing
[21] = horse feces 72 hours post-dosing
[22] = horse feces 96 hours post-dosing
[23] = horse feces 120 hours post-dosing

SMILES: COC(C)(C)CCC[C@H](C)C/C=C/C(C)=C/C(=O)OC(C)C (racemic) [methoprene]
- inhibition of development in manure (dung-breeding flies; drinking water): Complete inhibition of development in manure
- inhibition of development in manure (dung-breeding flies; mineral blocks): Complete inhibition of development in manure

SMILES: Nc1nc(N)nc(NC2CC2)n1 [cyromazine, 2-cyclopropylamino-4,6-diamino-s-triazine]
- Larval Hatch/50 Eggs, Rep 1-4 ([1]; horse Barney, 600 mg/day oral, <24 hours post-dosing group): 25 and 33 and 43 and 32
- % Eggs Hatching [1, 5]: 66.5%
- Larval Hatch/50 Eggs, Mean [1, 5]: 33.25
- Larval Hatch/50 Eggs, Σ [1, 5]: 133
- Larval Hatch/50 Eggs, Rep 1-4 ([1]; horse Fancy, 600 mg/day oral, <24 hours post-dosing group): 47 and 33 and 32 and 35
- % Eggs Hatching [1, 6]: 73.5%
- Larval Hatch/50 Eggs, Mean [1, 6]: 36.75
- Larval Hatch/50 Eggs, Σ [1, 6]: 147
- % Eggs Hatching [1, 7]: 83.5%
- Larval Hatch/50 Eggs, Mean [1, 7]: 41.75
- Larval Hatch/50 Eggs, Σ ([1]; horse Phalete, <24 hours post-dosing group, sum decreased by 7 (footnote)): 167*
- Larval Hatch/50 Eggs, Rep 1-4 ([1]; horse Precious, 600 mg/day oral, <24 hours post-dosing group): 49 and 37 and 44
- % Eggs Hatching [1, 8]: 89.5%
- Larval Hatch/50 Eggs, Mean [1, 8]: 44.75
- Larval Hatch/50 Eggs, Σ [1, 8]: 179
- % Eggs Hatching [1, 9]: 82.5%
- Larval Hatch/50 Eggs, Mean [1, 9]: 41.25
- Larval Hatch/50 Eggs, Σ [1, 9]: 165
- Larval Hatch/50 Eggs, Rep 1-4 [1, 9]: 40 and 35 and 42 and 48
- % Eggs Hatching [1, 10]: 57.5%
- Larval Hatch/50 Eggs, Mean [1, 10]: 28.75
- Larval Hatch/50 Eggs, Σ [1, 10]: 115
- Larval Hatch/50 Eggs, Rep 1-4 [1, 10]: 31 and 21 and 30 and 33
- % Eggs Hatching [1, 11]: 50.5%
- Larval Hatch/50 Eggs, Mean [1, 11]: 25.25
- Larval Hatch/50 Eggs, Σ [1, 11]: 101
- Larval Hatch/50 Eggs, Rep 1-4 [1, 11]: 27 and 35 and 18 and 21
- % Eggs Hatching [1, 12]: 75.0%
- Larval Hatch/50 Eggs, Mean [1, 12]: 37.50
- Larval Hatch/50 Eggs, Σ [1, 12]: 150
- Larval Hatch/50 Eggs, Rep 1-4 [1, 12]: 40 and 38 and 34
- % Eggs Hatching [1, 13]: 61.0%
- Larval Hatch/50 Eggs, Mean [1, 13]: 30.50
- Larval Hatch/50 Eggs, Σ [1, 13]: 122
- Larval Hatch/50 Eggs, Rep 1-4 [1, 13]: 38 and 25 and 31 and 28
- flies emerged [2, 14]: 1
- flies emerged, percent [2, 14]: 0.2%
- insecticidal amount in the feces ([2]; feces obtained at 24, 48, 72, 96 and 120 hours post-dosing): An insecticidal amount of cyromazine was present in the feces
- Adult Fly Emergence from Larvae Hatched, Rep 1-4 [2, 15]: 0
- # Larvae not Developing [2, 15]: 133
- % Larvae Emerging as Flies [2, 15]: 0%
- % Larvae not Developing [2, 15]: 100.0%
- Adult Fly Emergence from Larvae Hatched, Σ [2, 15]: 0
- Adult Fly Emergence from Larvae Hatched, Rep 1-4 [2, 16]: 0
- # Larvae not Developing [2, 16]: 147
- % Larvae Emerging as Flies [2, 16]: 0%
- % Larvae not Developing [2, 16]: 100.0%
- Adult Fly Emergence from Larvae Hatched, Σ [2, 16]: 0
- Adult Fly Emergence from Larvae Hatched, Rep 1-4 [2, 17]: 0
- # Larvae not Developing [2, 17]: 167
- % Larvae Emerging as Flies [2, 17]: 0%
- % Larvae not Developing [2, 17]: 100.0%
- Adult Fly Emergence from Larvae Hatched, Σ [2, 17]: 0
- Adult Fly Emergence from Larvae Hatched, Rep 1-4 [2, 18]: 0
- # Larvae not Developing [2, 18]: 179
- % Larvae Emerging as Flies [2, 18]: 0%
- % Larvae not Developing [2, 18]: 100.0%
- Adult Fly Emergence from Larvae Hatched, Σ [2, 18]: 0
- adult fly emergence from hatched larvae ([2]; first study, same horse sampled at 5 time points): completely inhibited adult fly emergence
- # Larvae not Developing [2, 19]: 165
- % Larvae Emerging as Flies [2, 19]: 0%
- % Larvae not Developing [2, 19]: 100.0%
- Adult Fly Emergence from Larvae Hatched, Σ [2, 19]: 0
- Adult Fly Emergence from Larvae Hatched, Rep 1-4 [2, 19]: 0
- # Larvae not Developing [2, 20]: 115
- % Larvae Emerging as Flies [2, 20]: 0%
- % Larvae not Developing [2, 20]: 100.0%
- Adult Fly Emergence from Larvae Hatched, Σ [2, 20]: 0
- Adult Fly Emergence from Larvae Hatched, Rep 1-4 [2, 20]: 0
- # Larvae not Developing [2, 21]: 101
- % Larvae Emerging as Flies [2, 21]: 0%
- % Larvae not Developing [2, 21]: 100.0%
- Adult Fly Emergence from Larvae Hatched, Σ [2, 21]: 0
- Adult Fly Emergence from Larvae Hatched, Rep 1-4 [2, 21]: 0
- # Larvae not Developing [2, 22]: 150
- % Larvae Emerging as Flies [2, 22]: 0%
- % Larvae not Developing [2, 22]: 100.0%
- Adult Fly Emergence from Larvae Hatched, Σ [2, 22]: 0
- Adult Fly Emergence from Larvae Hatched, Rep 1-4 [2, 22]: 0
- # Larvae not Developing [2, 23]: 121
- % Larvae Emerging as Flies [2, 23]: 0.8%
- % Larvae not Developing [2, 23]: 99.8%
- Adult Fly Emergence from Larvae Hatched, Σ [2, 23]: 1
- insecticidal activity of manure samples ([2]; horses orally administered cyromazine, feces without urine): high degree of insecticidal activity
- inhibition of house fly development ([2]; second study, all 4 horses, <24 hours post-dosing): 100%
- tolerability, side effects [3]: well tolerated at this dosage, and no side effects were seen
- doses preventing development of immature stages of flies in straw bedding (immature stages of flies): 0.5 to 1.0 mg/kg
- adult fly development (house fly): some adult flies did develop
- prevention of breeding of house flies (house flies): ineffective
- share of all cyromazine excreted found in urine [4]: 95%
